According to ChEMBL document CHEMBL1649183, “Substrate-induced inactivation of the Escherichia coli AmiD N-acetylmuramoyl-L-alanine amidase highlights a new strategy to inhibit this class of enzyme” (Antimicrob Agents Chemother, 2009):
The source made the active and inactive calls. No cut-off for these calls is given here.

Assays:
Escherichia coli [1] = test: Inactivation of histidine6-tagged Escherichia coli LMG194 AmiD at 14 uM
Escherichia coli [2] = test: Inactivation of histidine6-tagged Escherichia coli LMG194 AmiD at 27 uM

inhibition (Escherichia coli [1]): Active
inhibition (Escherichia coli [2]): Active
SMILES: CC(=O)N[C@H]1[C@@H]2OC[C@@H](O2)[C@@H](O[C@@H]2O[C@H](CO)[C@@H](O)C(O)[C@H]2NC(C)=O)[C@@H]1O[C@@H](C)C(=O)N[C@@H](C)C(=O)N[C@H](CCC(=O)N[C@H](CCC[C@H](N)C(=O)O)C(=O)N[C@H](C)C(=O)O)C(=O)O (single isomer, unassigned)
